Like-named read-outs stand apart in the source and are kept apart here.
How the values were obtained:
p53 in A2780 cells = test: p53 ELISA (capacity to preserve p53 in A2780 cells); assay type: cell-based; details: lowest dose giving at least 140% of the value for p53 present in the control; A2780 cells treated with compound for 16 hours
Protocol: The capacity of the compounds to preserve p53 in A2780 cells was measured with the p53 enzyme linked immunosorbent assay. The p53 assay is a “sandwich” enzyme immunoassay employing two polyclonal antibodies. A polyclonal antibody, specific for the p53 protein, has been immobilized onto the surface of the plastic wells. Any p53 present in the sample to be assayed will bind to the capture antibody. The biotinylated detector polyclonal antibody also recognizes p53 protein, and will bind to any p53, which has been retained by the capture antibody. The detector antibody, in turn, is bond by horseradish peroxidase-conjugated streptavidin. The horseradish peroxidase catalyses the conversion of the chromogenic substrate o-phenylene diamine, the intensity of which is proportional to the amount of p53 protein bond to the plate. The colored reaction product is quantified using a spectrophotometer. Quantitation is achieved by the construction of a standard curve using known concentrations of purified recombinant HIS tagged p53 protein (see example C.1.).
A2780 cells (ATCC) were cultivated in RPMI 1640 supplemented with 10% fetal calf serum (FCS), 2 mM L-glutamine and gentamycin at 37° C. in a humidified incubator with 5% CO2.
A2780 cells were seeded at 20.000 cells per well in a 96 well plate, cultured for 24 hours and treated with compound for 16 hours at 37° C. in a humidified incubator. After incubation, the cells were washed once with phosphate-buffered saline and 30 μl, per well, low salt RIPA buffer (20 mM tris, pH7.0, 0.5 mM EDTA, 1% Nonidet P40, 0.5% DOC, 0.05% SDS, 1 mM PMSF, 1 μg/ml aprotinin and 0.5 μ/ml leupeptin) was added. Plates were placed on ice for 30 minutes to complete the lysis. p53 protein was detected in de lysates by using the sandwich ELISA, described below.
High binding polystyrene EIA/RIA 96 well plates (Costar 9018) were coated with the capture antibody pAb1801 (Abcam ab28-100) at a concentration of 1 μg/ml in coating buffer (0.1 M NaHCO3 pH8.2), 50 μl per well. The antibody was allowed to adhere overnight at 4° C. Coated plates were washed once with phosphate-buffered saline (PBS)/0.05% Tween 20 and 300 μl of blocking buffer (PBS, 1% bovine serum albumins (BSA)) was added, for an incubation period of 2 hours at room temperature. Dilutions of purified recombinant HIS tagged p53 protein, ranging from 3-200 ng/ml, were made in blocking buffer and used as standards.
Plates were washed twice with PBS/0.05% Tween 20 and blocking buffer or standards were added at 80 μl/well. To the standards, 20 μl of lysis buffer was added. The samples were added to the other wells at 20 μl lysate/well. After an overnight incubation at 4° C., plates were washed twice with PBS/0.05% Tween 20. Aliquots of 100 μl secondary polyclonal antibody p53(FL-393) (Tebubio, sc-6243) at a concentration of 1 μg/ml in blocking buffer were added to each well and allowed to adhere for 2 hours at room temperature. Plates were washed three times with PBS/0.05% Tween 20. Detection antibody anti-rabbit HRP (sc-2004, Tebubio) at 0.04 μg/ml in PBS/1% BSA was added and incubated for 1 hour at room temperature. Plates were washed three times with PBS/0.05% Tween 20 and 100 μl of substrate buffer was added (substrate buffer was prepared shortly before use by adding 1 tablet of 10 mg o-phenylene diamine (OPD) from Sigma and 125 μl 3% H2O2 to 25 ml OPD buffer: 35 mM citric acid, 66 mM Na2HPO4, pH5.6). After 5 to 10 minutes, colour reaction was stopped by adding 50 μl stop buffer (1 M H2SO4) per well. The absorbance at dual wavelengths of 490/655 nm was measured using a Biorad micro plate reader and the results were then analyzed.
For each experiment, controls (containing no drug) and a blank incubation (containing no cells or drugs) were run in parallel. The blank value was subtracted from all control and sample values. For each sample, the value of p53 (in absorbance units) was expressed as the percentage of the value for p53 present in the control. […]

U87MG cells = test: Proliferation assay (MTT-based) on U87MG tumour cells; assay type: cell-based; details: Homo sapiens, U-87 MG, 96 h, 4 days of incubation
Protocol: Cellular activity of the compounds of formula (I) was determined on U87MG tumour cells using a colorimetric assay for cell toxicity or survival (see example C.2).
U87MG cells are human glioblastoma cells with wild type p53. In this cell line MDM2 tightly controls p53 expression.
All compounds tested were dissolved in DMSO and further dilutions were made in culture medium. Final DMSO concentrations never exceeded 0.1% (v/v) in cell proliferation assays. Controls contained U87MG cells and DMSO without compound and blanks contained DMSO but no cells.
U87MG cells were seeded in 96-well cell culture plates at 3000 cells/well/100 μl. 24 hours later, medium was changed and compound and/or solvent were added to a final volume of 200 μl. Following 4 days of incubation, medium was replaced by 200 μl fresh medium and cell growth was assessed using a MTT-based assay. Therefore, 25 μl of the MTT solution (0.5% MTT research grade from Serva in phosphate-buffered saline) was added to each well and the cells were further incubated for 2 hours at 37° C. The medium was then carefully aspirated and the blue MTT-formazan product was dissolved by adding to each well 25 μl 0.1M glycin and 100 μl DMSO. The plates were shaken for another 10 min on a micro plate shaker before reading absorbance at 540 nm by a Biorad micro plate reader.
Within an experiment, the results for each experimental condition are the mean of 3 replicate wells. For initial screening purposes, compounds were tested at a single fixed concentration of 10^−5 M. For active compounds, the experiments were repeated to establish full concentration-response curves. For each experiment, controls (containing no drug) and a blank incubation (containing no cells or drugs) were run in parallel. The blank value was subtracted from all control and sample values. For each sample, the mean value for cell growth (in absorbance units) was expressed as a percentage of the mean value for cell growth of the control. When appropriate, IC50-values (concentration of the drug, needed to reduce cell growth to 50% of the control) were computed using probit analysis for graded data (Finney, D. J., Probit Analyses, 2nd Ed. Chapter 10, Graded Responses, Cambridge University Press, Cambridge 1962). Herein the effects of test compounds are expressed as pIC50 (the negative log value of the IC50-value) (see table F-2).
In some of the experiments the proliferation assay was adapted for and used in 384-well culture plates (see table F-2).

[1] = 96-well plates, read-out: cell proliferation pIC50 96 well (converted)

Row | Compound | IC50 (U87MG cells; [1]) [µM] | IC50 (U87MG cells; 384-well culture plates, read-out: cell proliferation pIC50 384 well (converted)) [µM] | A2780 p53-elisa LAD (p53 in A2780 cells) [µM]
1 | c1ccc2c(CCNc3ccc4c(c3)CCN4c3ccncc3)c[nH]c2c1 [Compound 1] | 0.01 |  | 0.1
2 | c1ccc2c(N3CCc4cc(NCCc5c[nH]c6ccccc56)ccc43)ccnc2c1 [Compound 2] | 1.7 |  | 1
3 | COC(=O)c1cc(N2CCc3cc(NCCc4c[nH]c5ccccc45)ccc32)ccn1 [Compound 3] | 4.17 |  | 1

Continued, in another order:

Row | IC50 (U87MG cells; [1]) [µM] | IC50 (U87MG cells; 384-well culture plates, read-out: cell proliferation pIC50 384 well (converted)) [µM] | Compound | A2780 p53-elisa LAD (p53 in A2780 cells) [µM]
4 | 0.158 |  | OCc1cc(N2CCc3cc(NCCc4c[nH]c5ccccc45)ccc32)ccn1 [Compound 4] | 0.3
5 | 0.295 |  | OC1CCc2c(N3CCc4cc(NCCc5c[nH]c6ccccc56)ccc43)ccnc21 (stereo not drawn) [Compound 5] | 0.3
6 |  | 0.295 | CC1(C)CN(c2ccncc2)c2ccc(NCCc3c[nH]c4ccccc34)cc21 [Compound 6] | 3
